What all share (assay type): cell-based, human
For data set [1], the system named is hESC-CMs. The data set can be described thus: α-actinin immunostaining for sarcomeric integrity. As to the method: hESC-CMs were permeabilized using 0.1% Triton X-100 (Thermo Fisher Scientific, USA). After permeabilizing for 15 minutes, cells were washed three times in PBS, and further permeabilization was blocked by incubating cells in PBS with 10% FBS (Hyclone, USA) for 1 hour at room temperature. Cells were incubated with the primary anti-actinin antibody (1:400) (Abcam, UK) and diluted in PBS with 10% FBS overnight. Cells were then washed three times with PBS and incubated with a goat anti-mouse IgG1 secondary antibody (1:1000 diluted in PBS with 10% FBS) (Thermo Fisher Scientific, USA) for 1 hour at room temperature. Finally, cells were washed twice with PBS and mounted using ibidi mounting medium with DAPI (Ibidi, Germany). Microscopic images were acquired using the DMi8s Research Inverted Thunder Imager Live Cell System (Leica, Germany) at 20×, 40×, and 100× magnification.

Data set [2] relates to hESC-CMs. In words: Real-time PCR of genes important for mitochondrial function. As to the method: RNA was extracted using TRIzol™ Reagent (Thermo Fisher Scientific, USA) as per manufacturer's protocol. RNase-free reagents and consumables were used. RNA concentration and A260/280 ratio were determined using Synergy HTX Multi-Mode microplate reader (Agilent Technologies, USA).
cDNA was synthesized using the PrimeScript™ RT Master Mix (Takara, Japan) for real-time quantitative polymerase chain reaction (qPCR). Briefly, reverse transcription used 2 μl of 5× PrimeScript™ RT Master Mix, 0.5 μg of total RNA, and RNase-free dH2O added to total mixture volume of 10 μl. The reaction was carried out at 37° C. for 15 minutes and 85° C. for 5 seconds.
qPCR was performed using SYBR Green Master Mix (Promega, USA) as per manufacturer's protocol. A total reaction volume of 10 μl included 5 μl GoTaq® qPCR Master Mix 2×, 0.3 μl 10 nmol/L primers mix, and 30 ng cDNA template. The qPCR condition was: 1 cycle of 95° C. for 2 minutes, 40 cycles of 95° C. for 3 seconds, and 60° C. for 30 seconds. Expression level of genes was quantified using the 2^−ΔΔCT method on a ABI QuantStudio 12-Flex QPCR System W/96 Fast & 384 (Thermo Fisher Scientific, USA). Primer sequences used were summarized as follows for the respective gene sequences (Table 2).

In data set [3] the test system is hESC-CMs. In words: PrestoBlue cell viability analysis of hESC-CMs exposed to doxorubicin. The note with it: for optimal timing of pretreatment prior to doxorubicin: 1, 6, 24, 48, 72 h tested, doxorubicin 1.5 μM for 24 h. On the procedure:
Viability of hESC-CMs was assessed using PrestoBlue (Thermo Fisher Scientific, USA). hESC-CMs in suspension were seeded at a density of 15,000 cells per well on 96-well flat-bottom microtiter plates and cultured at 37° C. in a humidified 5% CO2 atmosphere. The B27+/RPMI-1640 media with Y27632 were changed to B27+/RPMI−1640 media within 24 hours. Cells were then incubated in B27+/RPMI−1640 without supplement for at least 72 hours. PrestoBlue was diluted in a ratio of 1:10 in B27+/RPMI−1640 media and incubated with the cells at 37° C. for 30 minutes. After incubation, fluorescence reading was performed at excitation and emission wavelengths of 530 nm and 590 nm, respectively, using the Synergy HTX Multi-Mode microplate reader (Agilent Technologies, Inc., USA).
Six logarithmic concentrations of GDF15 were initially used to identify the optimal dose for cytoprotection: 0.1 ng/ml, 1 ng/ml, 10 ng/ml, 100 ng/ml, 1,000 ng/ml (1 ug/ml), and 10,000 ng/ml (10 ug/ml). Further refinement of dose response was subsequently achieved using concentrations at 100 ng/ml, 200 ng/ml, and 300 ng/ml. The optimal time point (see below) of 24 hours was selected. Doxorubicin at 1.5 μM was used to induce cytotoxicity.
hESC-CMs were pretreated with GDF15 for 1 hour, 6 hours, 24 hours, 48 hours, or 72 hours (“pretreatment”), followed by exposure to 1.5 μM doxorubicin alone for a further 24 hours. A second set of experiments involved pretreatment of hESC-CMs for 1 hour, 6 hours, 24 hours, 48 hours, or 72 hours, followed by removal of the media containing GDF15, and coincubation of hESC-CMs with both GDF15 and doxorubicin for another 24h (“pre/co-treatment”). The efficacy of GDF15 in protecting cardiomyocytes was assessed by cell viability analysis using PrestoBlue.

Consider `COc1cccc2c1C(=O)c1c(O)c3c(c(O)c1C2=O)C[C@@](O)(C(=O)CO)C[C@@H]3OC1C[C@H](N)[C@H](O)[C@H](C)O1.Cl` (stereo partly drawn) [Dox, (8S,10S)-10-[(3-Amino-2,3,6-trideoxy-L-lyxohexopyranosyl)oxy]-7,8,9,10-tetrahydro-6,8,11-trihydroxy-8-(hydroxyacetyl)-1-methoxynaphthacene-5,12-dione hydrochloride, reference compound], for which, in the data set with hESC-CMs [1] (hESC-CMs exposed to Dox alone), the “sarcomere structure (α-actinin immunostaining)” value is “considerable disruption of sarcomere structure and nuclear condensation”. In addition, the “expression of genes important for mitochondrial function” value in the data set with hESC-CMs [2] (hESC-CMs, doxorubicin alone) is recorded as “suppressed”.
As for “GDF15: commercially available recombinant human GDF-15 protein (PeproTech 120-28C), CHO cell-derived, SEQ ID NO: 1”, in the data set on hESC-CMs [1] (hESC-CMs, agent only, no doxorubicin), the “sarcomere structure (α-actinin immunostaining)” value was “well-organized, striated sarcomeres”. For the same molecule, the “sarcomeric damage (α-actinin immunostaining)” value in the data set on hESC-CMs [1] (hESC-CMs, pretreatment preceding doxorubicin) was “sarcomeric damage was evidently attenuated”. Besides, in the data set with hESC-CMs [2] (hESC-CMs pretreated with GDF15 prior to doxorubicin exposure), the “expression of genes important for mitochondrial function” value is “improved”. In addition, the “cytoprotective effects after priming, pre/co-treatment” value with hESC-CMs [3] (hESC-CMs primed with GDF15 for 24 hours, then coincubation with GDF15 and doxorubicin 24 h) is given as “cytoprotective effects persisted”. In addition, the “optimal timing of pretreatment prior to doxorubicin” value was 24 h in the data set on hESC-CMs [3] (hESC-CMs) and “approximately 24 hours” in the data set on hESC-CMs [3] (hESC-CMs, listed as recombinant GDF15). In addition, the “cell viability (positive PrestoBlue staining)” value in the data set with hESC-CMs [3] (hESC-CMs, GDF15 pretreatment for 24 hours before doxorubicin 1.5 μM) is “increased cell viability”. In addition, the “cell viability compared with dexrazoxane” value in the data set with hESC-CMs [3] (hESC-CMs, pretreatment in the presence of Dox) is listed as “slightly higher percentage of cell viability”.

The values above are taken from patent US12209112B2, “Methods of preventing or treating diseases, conditions, or disorders associated with chemotherapy” (The Chinese University of Hong Kong, priority 2022, dated 2025).
